Four compounds from patent publication US6479499B1 can be followed below.

One assay deals with glioblastoma (U-87-MG). Briefly: In vitro cytotoxicity, U-87-MG. The note with it: Homo sapiens; for IC50: 96 h, read-out: ED50 U-87-MG; for inhibition at 20 µg/mL: read-out: Inhibition at highest test concentration (in brackets), U-87-MG.
Assay [1] has as its system epidermoid carcinoma of the nasopharynx (KB). Description: In vitro cytotoxicity, KB. The following applies: Homo sapiens; for IC50: 96 h, read-out: ED50 KB.
The test system of a further assay is bone (HOS). Description: In vitro cytotoxicity, HOS. The note with it: Homo sapiens; for IC50: 96 h, read-out: ED50 HOS; for inhibition at 20 µg/mL: read-out: Inhibition at highest test concentration (in brackets), HOS.
Another assay deals with bovine brain tubulin. Description: Tubulin polymerization assay (antimicrotubule assay). The note with it: read-out: ITP (inhibition of tubulin polymerization) IC50; tubulin […] (12 μM), 26° C., 20 min.
The next assay concerns lung carcinoma (A-549). Description: In vitro cytotoxicity, A-549. The following applies: Homo sapiens; for IC50: A549, 96 h, read-out: ED50 A-549.
A further assay has as its system breast cancer (MCF-7). Description: In vitro cytotoxicity, MCF-7. The note with it: Homo sapiens; for IC50: MCF7, 96 h, read-out: ED50 MCF-7; for inhibition at 20 µg/mL: MCF7, read-out: Inhibition at highest test concentration (in brackets), MCF-7.
Assay [2] deals with P-gp-expressing epidermoid carcinoma of the nasopharynx (KB-VIN). Briefly: In vitro cytotoxicity, KB-VIN. The following applies: Homo sapiens, KBVIN, 96 h, read-out: ED50 KB-VIN.
Another assay deals with melanoma (SKMEL-2). Description: In vitro cytotoxicity, SKMEL-2. The note with it: Homo sapiens; for IC50: SK-MEL-2, 96 h, read-out: ED50 SKMEL-2.
Another assay concerns prostate cancer (PC3). Description: In vitro cytotoxicity, PC3. The following applies: Homo sapiens; for IC50: 96 h, read-out: ED50 PC3; for inhibition at 20 µg/mL: read-out: Inhibition at highest test concentration (in brackets), PC3.
The test system of assay [3] is ileocecal carcinoma (HCT-8). Description: In vitro cytotoxicity, HCT-8. The following applies: Homo sapiens; for IC50: HCT-8, 96 h, read-out: ED50 HCT-8.
Assay [4] concerns human ovarian cancer (1A9). Briefly: In vitro cytotoxicity, 1A9. The following applies: 96 h, read-out: ED50 1A9.
Assay [5] deals with platelet aggregation induced by platelet-activating factor (PAF). Description: Antiplatelet assay, PAF-induced aggregation. The class given is cell-based, rabbit. The following applies: for Inhibition of PAF-induced platelet aggregation in words: Table 5; for Percent aggregation, PAF: PAF 2 ng/ml. How it is done:
(§1) c. Antiplatelet assay. Blood, collected from the marginal ear vein of rabbits was mixed with EDTA to a final concentration of 6 mM and centrifuged at 90 g for 10 mm at room temperature to obtain platelet-rich plasma. The latter was further centrifuged at 500 g for 10 mm and the platelets were washed with Tyrode's solution without EDTA. After centrifugation at the same conditions, the platelets were suspended in Tyrode's solution with the following compositions (mM): NaCl (136.8), KCl (2.8), NaNCO3(11.9), MgCl2(1.1), NaH2PO4(0.33), CaCl2(1.0), and glucose (11.2). Platelet numbers were determined with a Coulter Counter (Model ZM) and adjusted to 4.5×10^8 platelets/ml.
(§2) Aggregation was measured by the turbidimetric method [O'brien, J. R. J. Clin. Pathol. 1962, 15,452] with a dual-channel Lumi aggregometer (Model 1020, Payton, Canada). All glass ware was siliconized. Test compounds were added one minute before the addition of the aggregation inducer and the platelet suspension was stirred at 900 rpm. The percentage of aggregation was calculated as previously described [Teng, C. M.; Chen, W. Y.; Ko, W. C.; Ouyang, C. Biochem. Biophys. Acta. 1987, 924, 375].

In assay [6] the test system is platelet aggregation induced by collagen. Briefly: Antiplatelet assay, collagen-induced aggregation. The note with it: for IC50: Oryctolagus cuniculus, Platelet, read-out: IC50, collagen-induced platelet aggregation (Table 5); for IC50 / Percent aggregation, collagen: collagen 10 μg/ml; for Inhibition of collagen-induced platelet aggregation in words: Table 5. The class given is cell-based, rabbit. The protocol:
as §1, §2

In assay [7] the test system is platelet aggregation induced by arachidonic acid (AA). Briefly: Antiplatelet assay, arachidonic acid-induced aggregation. The class given is cell-based, rabbit. The note with it: for IC50: Oryctolagus cuniculus, Platelet; for IC50 / Percent aggregation, AA: AA 100 μM; for Inhibition of AA-induced platelet aggregation in words: Table 5. How it is done:
as §1, §2

Assay [8] deals with platelet aggregation induced by thrombin. Description: Antiplatelet assay, thrombin-induced aggregation. The class given is cell-based, rabbit. The following applies: for Inhibition of thrombin-induced platelet aggregation in words: Table 5; for Percent aggregation, thrombin: thrombin 0.1 U/ml. The protocol: as §1, §2
The mark [9] stands for this setting: 37° C., 1 min preincubation, read-out: IC50, platelet aggregation induced by arachidonic acid (in vitro) (Table 6).
[10] abbreviates: read-out: IC50, AA-induced platelet aggregation (Table 5).
Where [11] appears, read: compound 100 μg/ml, 37° C., 1 min preincubation.

Values after ≈ are worked out from the molar mass of the structure shown. Like-named read-outs stand apart in the source and are kept apart here. Where only a bound is given, the exact number is not on record here.

Take `COc1ccc(OC)c(C2NC(=O)c3ccccc3N2)c1` (racemic) [Compound 65, 2,3-Dihydro-2-(2′,5′-dimethoxyphenyl)-4-quinazolinone]: the IC50 with glioblastoma (U-87-MG) was > 20 µg/mL; in assay [1], > 20 µg/mL; in the assay on bone (HOS), > 20 µg/mL; in the assay with bovine brain tubulin it was 32 ± 4 µM; in the assay on lung carcinoma (A-549) it was > 20 µg/mL; in the assay on breast cancer (MCF-7), > 20 µg/mL. Moreover, the IC50 was 8.4 µg/mL (≈ 29.5 µM) in assay [2]; > 20 µg/mL in the assay on melanoma (SKMEL-2); > 20 µg/mL in the assay on prostate cancer (PC3); > 20 µg/mL in [3]; 10 µg/mL (≈ 35.2 µM) in [4]. Moreover, the inhibition at 20 µg/mL came to 5% with glioblastoma (U-87-MG); 40% in assay [1] (read-out: Inhibition at highest test concentration (in brackets), KB); 40% with bone (HOS); 42% in the assay with lung carcinoma (A-549) (A549, read-out: Inhibition at highest test concentration (in brackets), A-549); 42% in the assay on breast cancer (MCF-7); 44% in the assay on melanoma (SKMEL-2) (SK-MEL-2, read-out: Inhibition at highest test concentration (in brackets), SKMEL-2). Besides, the inhibition at 20 µg/mL stood at 22% in the assay with prostate cancer (PC3) and 32% in [3] (HCT-8, read-out: Inhibition at highest test concentration (in brackets), HCT-8).
For `COc1cc(OC)cc(C2NC(=O)c3ccccc3N2)c1` (racemic) [Compound 67, 2,3-Dihydro-2-(3′,5′-dimethoxyphenyl)-4-quinazolinone], the IC50 in the assay on glioblastoma (U-87-MG) is > 20 µg/mL; in assay [1], 4.7 µg/mL (≈ 16.5 µM); in the assay with bone (HOS) it was > 20 µg/mL; in the assay on bovine brain tubulin, 12 ± 3 µM; in the assay on lung carcinoma (A-549), 5 µg/mL (≈ 17.6 µM); in the assay on breast cancer (MCF-7) it was > 20 µg/mL. Also, the IC50 in [2] is 1.6 µg/mL (≈ 5.63 µM); in the assay on melanoma (SKMEL-2), 4.4 µg/mL (≈ 15.5 µM); in the assay with prostate cancer (PC3) it was > 20 µg/mL; in assay [3], 3 µg/mL (≈ 10.6 µM); in assay [4] it was 1.92 µg/mL (≈ 6.75 µM). The inhibition at 20 µg/mL in the assay on glioblastoma (U-87-MG) was 37%; in the assay with bone (HOS), 41%; in the assay with breast cancer (MCF-7), 49%; in the assay on prostate cancer (PC3) it was 44%.
Turning to `COc1nc(-c2ccccc2)nc2ccccc12` [Compound 69, 4-Methoxy-2-phenylquinazoline], the “Inhibition of PAF-induced platelet aggregation in words” value in [5] is “poor inhibitors”. The “Percent aggregation, PAF” value in [5] (compound 20 μg/ml) is 87.9 ± 1.8(4) %; in assay [5] (compound 50 μg/ml), 38.1 ± 8.3(4) %; in assay [5] (compound 100 μg/ml), 2.1 ± 1.8(4) %. For the same compound, the IC50 in [6] stood at 8.47 µM; in [7] (setting [9]) it was 7.2 µM; in [7] (setting [10]), 7.2 µM. Further, the “Inhibition of collagen-induced platelet aggregation in words” value in assay [6] was “relatively stronger inhibitors”. The “Percent aggregation, collagen” value in assay [6] (compound 0.2 μg/ml) was 88.4 ± 1.9(4) %; in assay [6] (compound 0.5 μg/ml) it was 76.2 ± 3.7(4) %; in [6] (compound 1 μg/ml), 52.6 ± 7.5(4) %; in [6] (compound 2 μg/ml), 43.0 ± 6.4(4) %; in assay [6] (compound 5 μg/ml) it was 31.5 ± 6.4(4) %; in [6] (compound 10 μg/ml) it was 1.1 ± 0.9(4) %. Besides, the “Percent aggregation, collagen” value in [6] (compound 20 μg/ml) and in [6] (compound 100 μg/ml) was 0.0 ± 0.0(4) % in each case. The “Inhibition of AA-induced platelet aggregation in words” value in [7] was “relatively stronger inhibitors”. The “Percent aggregation, AA” value is recorded as 86.0 ± 1.2(4) % in assay [7] (compound 0.5 μg/ml); 65.0 ± 8.1(4) % in assay [7] (compound 1 μg/ml); 35.3 ± 14.9(4) % in assay [7] (compound 2 μg/ml); 15.0 ± 11.8(4) % in assay [7] (compound 5 μg/ml); 0.0 ± 0.0(4) % in assay [7] (compound 10 μg/ml); 0.0 ± 0.0(4) % in assay [7] (compound 100 μg/ml). Moreover, the “Inhibition of thrombin-induced platelet aggregation in words” value in [8] was “poor inhibitors”. The “Percent aggregation, thrombin” value is on record as 88.1 ± 0.8(3) % in [8] (compound 20 μg/ml), 13.3 ± 5.3(3) % in assay [8] (compound 50 μg/ml) and 2.8 ± 2.3(3) % in [8] (setting [11]).
In the case of `CCOc1nc(-c2ccccc2)nc2ccccc12` [Compound 70, 4-Ethoxy-2-phenylquinazoline], in assay [5], the “Inhibition of PAF-induced platelet aggregation in words” value is given as “poor inhibitors”. For the same compound, the “Percent aggregation, PAF” value was 88.8 ± 1.0(4) % in assay [5] (compound 20 μg/ml), 19.8 ± 7.0(4) % in [5] (compound 50 μg/ml) and 2.1 ± 1.8(4) % in assay [5] (compound 100 μg/ml). In addition, the IC50 amounted to 9.2 µM in assay [6], 1.6 µM in [7] (setting [9]) and 1.6 µM in assay [7] (setting [10]). In addition, in assay [6], the “Inhibition of collagen-induced platelet aggregation in words” value is reported as “relatively stronger inhibitors”. Moreover, the “Percent aggregation, collagen” value in [6] (compound 0.1 μg/ml) is 86.4 ± 2.9(4) %; in assay [6] (compound 0.2 μg/ml), 78.5 ± 4.7(4) %; in assay [6] (compound 0.5 μg/ml) it was 63.9 ± 7.4(4) %; in [6] (compound 1 μg/ml) it was 47.1 ± 6.6(4) %; in assay [6] (compound 2 μg/ml), 35.0 ± 10.3(4) %; in assay [6] (compound 5 μg/ml) it was 30.1 ± 9.0(4) %. Moreover, the “Percent aggregation, collagen” value in assay [6] (compound 10 μg/ml) was 19.3 ± 9.8(4) %; in [6] (compound 20 μg/ml) it was 10.3 ± 6.0(4) %; in assay [6] (compound 50 μg/ml) it was 0.0 ± 0.0(4) %; in assay [6] (compound 100 μg/ml), 0.0 ± 0.0(4) %. Also, in [7], the “Inhibition of AA-induced platelet aggregation in words” value is “relatively stronger inhibitors”. Also, the “Percent aggregation, AA” value in [7] (compound 0.1 μg/ml) was 85.5 ± 2.0(5) %; in assay [7] (compound 0.2 μg/ml), 76.9 ± 5.4(5) %; in assay [7] (compound 0.5 μg/ml), 33.8 ± 13.4(5) %; in assay [7] (compound 1 μg/ml), 0.0 ± 0.0(5) %; in assay [7] (compound 100 μg/ml), 0.0 ± 0.0(5) %. Also, the “Inhibition of thrombin-induced platelet aggregation in words” value in assay [8] was “poor inhibitors”. For the same compound, the figures for the “Percent aggregation, thrombin” value in assay [8] (compound 20 μg/ml), in assay [8] (compound 50 μg/ml) and in [8] (setting [11]) were 91.5 ± 1.2(4) %, 75.1 ± 7.3(4) % and 11.7 ± 6.5(4) %, respectively.
